{"source": "patent US5880076A", "about": "“Compositions comprising glycacarbamate and glycaurea compounds” (Lever Brothers Company, Division of Conopco, Inc., priority 1997, dated 1999)", "key": {"[1]": {"test": "Critical Micelle Concentration (micelle formation)", "assay_type": "physicochemical", "settings": "40° C.", "text": "The critical micelle concentration (CMC) is defined as the concentration at which a surfactant forms micelles in aqueous solution. […] A necessary and sufficient condition for CMC formation and surface tension reduction is the presence of both hydrophilic and hydrophobic functional groups. The hydrophilic portion provides strong interaction between the surfactant at the interface and with the surrounding water phase. The hydrophobic portion provides spontaneous adsorption of the surfactant at the interface and strong interaction with the adjacent air phase. If any of these functions are not performed, then CMC formation and surface tension reduction will not occur. For significant surface activity, a properly balanced hydrophilic and hydrophobic character is essential."}, "[2]": {"test": "Water Solubility and Krafft Point (0.1% solution in water, 40° C.)", "settings": "40° C."}, "[3]": {"test": "Viscosity Modification of Sodium Lauryl Sulfate prototype detergent compositions", "assay_type": "physicochemical", "settings": "for Appearance (viscosity) / Viscosity Increase: 15.0% sodium lauryl sulfate; for Viscosity Increase: 22° C.", "method": "The prototype detergent compositions are as follows:\n(§1) Detergent Compositions Comprising Sodium\n(§2) Lauryl Sulfate and Glycacarbamate Compounds\nN-Dodecyl D-Glucocarbamate\n2.0-7.0% Foam Stabilizer/Thickener\n2.0% Viscosity Cobuilder\n(§3) Lauryl Sulfate and Glycaurea Compounds\n(§4) The above formulations were prepared by admixing the above ingredients in listed order and heating the mixture to about 80° C. with rapid stirring. The mixture was then cooled to about 40° C., placed in a clear jar and stored at room temperature.\nIt is well known that the viscosity of a liquid composition comprision of anionic surfactant can be modified by the addition of inorganic salts, such as sodium chloride. However, in the absence of an organic modifier, high levels of salt may be necessary to achieve the required viscosity which may lead to problems of storage at cold temperature or even salting our certain ingrediets. In practice, however, the viscosity of a liquid compositionis modified by the simultaneous addition of thickener and small amounts of inorganic salt (viscosity cobuilder). The combined effect is greater than either one alone. The viscosity of the above prototype detergent compositions comprising various amounts of glycacarbamate/urea compound are as follows: […]"}, "[4]": {"test": "Surface Tension Reduction", "assay_type": "physicochemical", "settings": "40° C.", "text": "An important characteristic feature that surfactants have is the tendency for them to absorb at the water/air interface in an oriented manner, thereby altering the interfacial free energy of that surface. The surface free energy per unit area or surface tension (γ), is a measure of this work and may be considered as the minimum amount of work required to bring sufficient surfactant molecules to the surface."}, "[5]": {"test": "Flow aids: water uptake and appearance of intimate admixtures", "assay_type": "physicochemical", "settings": "intimate admixtures with ODS, SCMOS, CP-5 or CP-7", "text": "It is known in the are that certain ingredients are hygroscopic in nature and liquify after exposure to moisture after a few days. […] Samples were removed periodically, weighed and returned to R. H. chamber. Percent water uptake was based on the amound of builder present. % H2 O Uptake=grams of water absorbed/grams of builder×100 Identical mixtures of ODS, SCMOS, CP-5 or CP-7 and methyl α-D-glucose-6-O-monolaurate (c12 Mgluc), dodecyl β-D-glucopyranoside (C12 Gluc), dodecyl β-D-maltoside (C12 Malt), D-glucose or D-sorbitol were also prepared and are used for comparison. When the comparative sugar surfactant of monosacchardie are used, percent water uptake was based on the amount of saccharide present. % H2 O Uptake=grams of water absorbed/grams of saccharide×100"}, "[6]": {"test": "Clarity Enhancement of prototype detergent compositions", "assay_type": "physicochemical", "settings": "detergent formulation", "method": "The formulations were placed in a clear jar and stored for 1 month. The prototype detergent compositions are as follows:\nas §1, §2\nN-Coconut D-Glucocarbamate\n0.5-4.0% Foam Stabilizer/Thickener\nas §3, §4\nFor a clear detergent formulation to be successful it must have good shelf life and should not become turbid or produce sedimentation upon standing."}, "[7]": {"test": "Viscosity Enhancement/Foam Stabilization (Brookfield Digital Viscometer)"}}}
{"smiles": "CCCCCCCCCCCCN1C[C@H](O)[C@H]([C@H](O)[C@H](O)CO)OC1=O", "note": "[N-Dodecyl D-Glucocarbamate]", "values": [{"measurement": "CMC at 40° C. (micelle formation)", "setting": "[1]", "value": "Yes"}, {"measurement": "H2O Solubility at 40° C.", "setting": "[2]", "value": "Yes"}, {"measurement": "Krafft point (Tk)", "setting": "[2]", "value": "Below Tk"}, {"measurement": "Appearance (viscosity)", "setting": "[3]; 2.0% thickener", "value": "Slightly Viscous"}, {"measurement": "Viscosity Increase", "setting": "[3]; 2.0% thickener", "value": "Yes"}, {"measurement": "Appearance (viscosity)", "setting": "[3]; 4.0% thickener", "value": "Viscous"}, {"measurement": "Viscosity Increase", "setting": "[3]; 4.0% thickener", "value": "Yes"}, {"measurement": "Appearance (viscosity)", "setting": "[3]; 7.0% thickener", "value": "Very Viscous"}, {"measurement": "Viscosity Increase", "setting": "[3]; 7.0% thickener", "value": "Yes"}, {"measurement": "viscosity increase (in words)", "setting": "[3]; compared with D-glucose", "value": "increases the viscosity of that composition more effectively than D-glucose"}, {"measurement": "Surface tension reduction (γ) at 40° C.", "setting": "[4]", "value": "Yes"}, {"measurement": "handling and flowing characteristics (in words)", "setting": "[5]", "value": "improved the handling and flowing characteristics"}, {"measurement": "clarity (in words)", "setting": "[6]", "value": "clear without sedimentation"}, {"measurement": "Foam Stability", "setting": "[7]; 4.0% thickener", "value": "Yes"}, {"measurement": "viscosity increase from normal viscosity", "setting": "[7]; 4.0% thickener", "value": "99-104 times"}, {"measurement": "Viscosity (Centipoise)", "setting": "[7]; 4.0% thickener, 22° C.", "value": 2176, "unit": "Centipoise"}, {"measurement": "Foam Stability", "setting": "[7]; 4.0% thickener, listed as N-dodecyl D-glucocarbamate", "value": "stabilize foam"}, {"measurement": "viscosity enhancement and foam stabilization (comparison in words)", "setting": "[7]; compared with lauramide DEA, cocoamide MEA, Neodol 91-6 and D-glucose", "value": "enhance viscosity and stabilze foam compartively to lauramide diethanolamine (DEA), but better than cocoamide menoethanolamine (MEA), Neodol 91-6 (C9 -C11 alcohol ethoxylate with 6 moles of ethylene oxide) and D-glucose"}]}
